# Reference: PMC4368189, “YCZ-18 Is a New Brassinosteroid Biosynthesis Inhibitor” (PLoS ONE, 2015)
# Target: T1, CYP90D1 (Arabidopsis thaliana, UniProt Q94IA6)
# T1 construct: CYP90D1 mature protein, expressed in E. coli from pCold-GST; fusion cleaved with HRV3C protease
# T1 sequence (Q94IA6 1-491): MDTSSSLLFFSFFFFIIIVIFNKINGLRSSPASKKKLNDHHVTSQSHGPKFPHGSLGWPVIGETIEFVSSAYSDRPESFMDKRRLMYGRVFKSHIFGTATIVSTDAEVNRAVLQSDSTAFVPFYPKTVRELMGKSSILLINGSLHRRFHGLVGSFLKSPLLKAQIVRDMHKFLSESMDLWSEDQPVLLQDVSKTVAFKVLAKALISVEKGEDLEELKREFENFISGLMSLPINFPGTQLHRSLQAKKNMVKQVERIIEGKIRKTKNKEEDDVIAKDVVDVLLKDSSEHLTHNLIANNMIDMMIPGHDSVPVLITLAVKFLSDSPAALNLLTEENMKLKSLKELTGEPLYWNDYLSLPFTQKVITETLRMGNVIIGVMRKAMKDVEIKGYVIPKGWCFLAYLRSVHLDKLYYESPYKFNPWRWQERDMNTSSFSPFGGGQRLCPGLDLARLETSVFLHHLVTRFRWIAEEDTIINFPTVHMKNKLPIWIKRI
# Test: optical difference spectroscopy (type II binding spectrum) titration of purified recombinant CYP90D1
structure (smiles),measurement,value
CCOc1ccccc1OCC1COC(Cn2cncn2)(c2ccc(Cl)cc2)O1 (stereo not shown) [YCZ-18],Kd,~790 nM
